Reference: patent US20120088772A1, “NOVEL PHARMACEUTICAL COMPOSITION FOR PREVENTION AND/OR TREATMENT OF ATTENTION DEFICIT/HYPERACTIVITY DISORDER” (ASTELLAS PHARMA INC., priority 2009, published 2012)
Where a name gives a salt, the structure may show the parent alone.

Experiments:
BEC1 potassium channel [1] = target: T1, BEC1 potassium channel (Homo sapiens, UniProt Q9ULD8); conditions: background statement; cited from earlier work
T1 sequence (Q9ULD8 1-1083): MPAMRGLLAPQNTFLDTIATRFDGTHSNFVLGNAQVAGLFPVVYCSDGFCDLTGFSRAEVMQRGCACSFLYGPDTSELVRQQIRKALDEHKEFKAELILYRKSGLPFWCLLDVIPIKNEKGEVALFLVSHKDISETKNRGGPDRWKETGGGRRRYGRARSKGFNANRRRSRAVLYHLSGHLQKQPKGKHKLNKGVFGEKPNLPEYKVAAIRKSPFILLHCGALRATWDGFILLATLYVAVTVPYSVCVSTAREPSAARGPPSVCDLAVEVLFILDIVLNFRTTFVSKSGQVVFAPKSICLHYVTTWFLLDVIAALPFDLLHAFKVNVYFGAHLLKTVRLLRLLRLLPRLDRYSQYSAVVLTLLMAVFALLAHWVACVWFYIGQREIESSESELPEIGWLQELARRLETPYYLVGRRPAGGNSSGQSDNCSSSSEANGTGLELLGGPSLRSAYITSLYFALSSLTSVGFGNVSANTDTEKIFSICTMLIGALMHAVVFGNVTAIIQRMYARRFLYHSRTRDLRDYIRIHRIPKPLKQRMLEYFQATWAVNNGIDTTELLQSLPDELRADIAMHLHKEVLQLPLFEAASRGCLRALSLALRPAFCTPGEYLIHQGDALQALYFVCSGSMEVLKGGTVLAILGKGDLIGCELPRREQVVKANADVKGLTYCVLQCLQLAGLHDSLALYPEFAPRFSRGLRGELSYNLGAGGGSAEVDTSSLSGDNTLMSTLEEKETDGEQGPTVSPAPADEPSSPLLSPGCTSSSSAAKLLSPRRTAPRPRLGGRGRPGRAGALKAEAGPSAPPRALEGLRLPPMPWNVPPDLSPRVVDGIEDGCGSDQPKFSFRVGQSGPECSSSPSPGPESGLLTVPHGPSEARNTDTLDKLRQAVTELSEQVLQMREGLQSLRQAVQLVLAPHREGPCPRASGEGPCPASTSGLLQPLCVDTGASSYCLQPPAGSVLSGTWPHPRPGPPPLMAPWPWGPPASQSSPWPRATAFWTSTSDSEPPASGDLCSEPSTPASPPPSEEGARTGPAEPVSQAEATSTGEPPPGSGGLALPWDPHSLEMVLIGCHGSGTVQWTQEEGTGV

[2] = test system: spontaneously hypertensive stroke-prone rats (SHRSP); test: Passive avoidance response test with SHRSP (attention deficit/hyperactivity disorder model); assay type: in vivo, rat; conditions: for Minimum effective dose: 30 min before test; for Effect on cumulative entry latency of SHRSP: sum of entry latency of 2nd to 5th trial, compared with solvent group
Experimental: Verification of the therapeutic effect on attention deficit/hyperactivity disorder was carried out using spontaneously hypertensive stroke-prone rats (SHRSP). […] The method of Fox et al. (Fox, G. B. et al., Behay. Brain. Res., 131: 151-161, 2002) was partially modified, and the drug action on attention deficit/hyperactivity disorder was verified using a passive avoidance response test with SHRSP. That is, a solvent (vehicle), or dilutions prepared by diluting methylphenidate, compound (1), compound (2), compound (3), compound (4), and compound (5), with a solvent at multiple concentrations were administered to the rats in each group. Methylphenidate was subcutaneously administered, and compounds (1) to (5) were orally administered. As the solvent, physiological saline was used for methylphenidate and a 0.5% aqueous solution of methylcellulose was used for compounds (1) to (5). After 30 minutes of each drug administration, rats were placed in the bright room of the passive avoidance response measurement apparatus, and the time required for the rat to enter the dark room (entry latency) was measured. The longest time for measurement was 180 seconds. When rats entered in the dark room, a very weak electric current was forced to flow from a foot grid in the dark room. This trial was repeated five times, and the sum of the entry latency from 2nd time to 5th time (cumulative entry latency) was adopted as an indicator of the therapeutic effect on attention deficit/hyperactivity disorder. The test of significance difference was carried out between the solvent administered group and the drug administered groups, using Dunnett's test.

BEC1 potassium channel [3] = target: T1, BEC1 potassium channel; test: BEC1 inhibitory activity by 86Rb ion release from BEC1 expressing cells; assay type: cell-based; set-up: expressed in transfected cells; conditions: 86Rb release, BEC1 stably expressing CHO (dhfr-deficient) cells, 100 mM KCl stimulation; read-out: BEC1 Inhibittory Activity IC50
Experimental: Method for measuring BEC1 inhibitory activity of compound utilizing 86Rb ion release amount as indicator
The channel activity of BEC1 was measured according to the method described in U.S. Pat. No. 6,326,168 utilizing the release of the ions of radioactive isotope 86Rb from BEC1 expressing cells as an indicator. Specifically, when BEC1 expressing cells which had taken in 86Rb ions were stimulated with 100 mM KCl, the radioactivity released from the cells was designated as the channel activity of BEC1. 86Rb ions were incorporated into cells by culturing (3 hours, 37° C.) BEC1 stably expressing cells in the presence of 86RbCl (0.5 μCi/ml), and the unincorporated 86Rb ions were removed by washing the cells three times with HEPES buffered physiological saline (pH 7.4, 2.5 mM KCl). […]
The Cherenkov radioactivities of the extracellular fluid and the cell lysate were respectively measured, and the sum was designated as the total radioactivity. The release amount of 86Rb ions was expressed as the percentage of the radioactivity of the extracellular fluid to the total radiation activity. […] The inhibitory action of the compound was indicated as the IC50 value determined from the inhibition % (that is, (control value—test value)×100/(control value—blank value)). […]

[4] = oral, smallest dose giving significantly longer cumulative entry latency than solvent group (Dunnett's test)

Which melting point does the source give for `Fc1ccc(Nc2nc(NCc3ncccn3)nc(Nc3ccc(F)cc3)n2)cc1` (as salt: HCl) [(2), N,N′-bis(4-fluorophenyl)-N″-(pyrimidin-2-ylmethyl)-1,3,5-triazine-2,4,6-triamine] here?
Its melting point is 183 to 186 °C.

With `C=C[C@H]1C[N@@]2CC[C@H]1C[C@@H]2[C@@H](O)c1ccnc2ccc(OC)cc12` [quinidine] as the molecule, how does the “Inhibition of BEC1 potassium channels” value (BEC1 potassium channel [1]) read?
The value was “do not inhibit”.

With `Fc1ccc(Nc2nc(NCc3ccncn3)nc(Nc3ccc(F)cc3)n2)cc1` [(4), N,N′-bis(4-fluorophenyl)-N″-(pyrimidin-4-ylmethyl)-1,3,5-triazine-2,4,6-triamine] as the molecule, how does the Minimum effective dose [2, 4] read?
The Minimum effective dose was 0.03 mg/kg p.o.

And the “Effect on cumulative entry latency of SHRSP” value (from here on “Effect … of SHRSP”) [2]?
The value was “prolonged the cumulative entry latency”.

With `Fc1ccc(Nc2nc(NCc3ncccn3)nc(Nc3ccc(F)cc3)n2)cc1` [(2), N,N′-bis(4-fluorophenyl)-N″-(pyrimidin-2-ylmethyl)-1,3,5-triazine-2,4,6-triamine] as the molecule, how does the Minimum effective dose [2, 4] read?
Its Minimum effective dose is 0.03 mg/kg p.o.

And the “Effect … of SHRSP” value [2]?
Its value is “prolonged the cumulative entry latency”.

For `Fc1ccc(Nc2nc(NCc3ncccn3)nc(Nc3ccccc3)n2)cc1` [Compound (1), N-(4-fluorophenyl)-N′-phenyl-N″-(pyrimidin-2-ylmethyl)-1,3,5-triazine-2,4,6-triamine], which Minimum effective dose [2, 4] is on record?
The Minimum effective dose was 0.1 mg/kg p.o.

What about the “Effect … of SHRSP” value [2] of the same molecule?
Its value is “prolonged the cumulative entry latency”.

For `COc1ccc(Nc2nc(NCc3ncccn3)nc(Nc3ccc(F)cc3)n2)cc1` [(3), N-(4-fluorophenyl)-N′-(4-methoxyphenyl)-N″-(pyrimidin-2-ylmethyl)-1,3,5-triazine-2,4,6-triamine], which Minimum effective dose [2, 4] is on record?
Its Minimum effective dose is 0.3 mg/kg p.o.

What about the “Effect … of SHRSP” value [2] of the same molecule?
The value was “prolonged the cumulative entry latency”.

What does the source list for `COC(=O)C(c1ccccc1)C1CCCCN1` (stereo not shown) [Methylphenidate, methylphenidate, reference compound]?
Minimum effective dose ([2]; subcutaneous (sc), smallest dose giving significantly longer cumulative entry latency than solvent group): 0.1(sc) mg/kg; Effect on cumulative entry latency of SHRSP [2]: prolonged the cumulative entry latency

With `Cl.Nc1nc(Nc2ccc(F)cc2)nc(N(Cc2ccnc(F)c2)c2ccccc2)n1` [(5), N-(4-fluorophenyl)-N′-[(2-fluoro-4-pyridyl)methyl]-N′-phenyl-1,3,5-triazine-2,4,6-triamine hydrochloride] as the molecule, how does the IC50 (BEC1 potassium channel [3]) read?
The IC50 was 85 nM.

And the Minimum effective dose [2, 4]?
The Minimum effective dose was 3 mg/kg p.o.

And the “Effect … of SHRSP” value [2]?
Its value is “prolonged the cumulative entry latency”.

Which “Inhibition of BEC1 potassium channels” value (BEC1 potassium channel [1]) does the source give for `CC[N+](CC)(CC)CC` [tetraethylammonium] here?
Its value is “do not inhibit”.
